These results are taken from ChEMBL document CHEMBL6078627, “Epigallocatechin and epigallocatechin-3-gallate are not inhibitors of tyrosinase” (Bioorg Med Chem Lett, 2024).

Structures are written as SMILES. Active and inactive are the calls of the source. The calls are words filed in the database; no cut-off is given here.

Common to all, as to format: protein assay
The target in experiment [1] is T1, Mushroom tyrosinase (Agaricus bisporus) (UniProt O42713+Q00024+C7FF04+C7FF05). Nature of the experiment: Inhibition of mushroom Tyrosinase using L-DOPA as substrate assessed as change in absorbance at 50 to 100 uM by spectrophotometric analysis. The settings on record: dose 50-100 µM.
Experiment [2] deals with T1, Mushroom tyrosinase (Agaricus bisporus). Kind of experiment: Inhibition of mushroom Tyrosinase using L-DOPA as substrate assessed as change in absorbance at 50 to 100 uM at 305 nm by spectrophotometric analysis. To be noted: dose 50-100 µM.
The target is the same in experiment [3]. Nature of the experiment: Inhibition of mushroom Tyrosinase using L-DOPA as substrate assessed as reduction in oxygen consumption.
For experiment [4] the target is unchanged. Kind of experiment: Inhibition of mushroom Tyrosinase using L-DOPA as substrate assessed as reduction in oxygen consumption measured after 10 mins.

One may read the inhibition as how much of the control response was suppressed. In the case of `O=C(O[C@@H]1Cc2c(O)cc(O)cc2O[C@@H]1c1cc(O)c(O)c(O)c1)c1cc(O)c(O)c(O)c1`, the inhibition result in experiment [1], in experiment [2] and in experiment [3] was “Active” in each case. Besides, in experiment [4], the inhibition was found to be 10%.

For the compound `Oc1cc(O)c2c(c1)O[C@H](c1cc(O)c(O)c(O)c1)[C@H](O)C2`, the inhibition entry in experiment [1], in experiment [2] and in experiment [3] was “Active” in each case.

On to `O=C(O)c1cc(O)c(O)c(O)c1`, for which the inhibition result in experiment [1], in experiment [2] and in experiment [3] was “Active” in each case.
